According to patent US20070059385A1, “Safe pharmaceutical composition for treating and preventing cancer and method of use” (priority 2005, published 2007):

Key:
[1] = system: salmonella typhimurium strains TA97, TA98 and TA100; assay: Salmonella mutagenicity assay, overall conclusion; conditions: conclusion from Table 14
Protocol: (§1) The method for detecting mutagenicity of HHT, with the Salmonella system that detects the reversion of the bacteria from His^− to His^+, is widely used.
(§2) The bacterial tester strains used for mutagenesis testing are TA97, TA98, TA100 and TA102. Mutagenesis testing method was done as described previously ^[77-88]. In brief, TA97, TA98, TA100 and TA102 were grown in agar gel culture. The petri plats (100×15 mm style) contain 30 ml with 2% glucose. The agar mixture was agitated vigorously and immediately poured into plates of minimal agar. The cultures were incubated at 37° C. in a dark and 5% CO2 in air for 48 hours. After 48 hours the colonies in both test and controls are counted. The presence of a background lawn of bacteria on the histidine-poor soft agar plate was used as an indication that gross toxic effects were absent. Mutagenicity assays were carried out at least in triplicate.
(§3) The range of spontaneous mutation rates for the individual strains, which were considered to be acceptable, was TA97 (100-170), TA98 (20-40) and TA100 (80-150).

[2] = system: Human leukemia cells (HL-60); assay: Apoptosis of human leukemia cells; assay type: cell-based
Protocol: Human leukemia cells (HL-60) were grown in RPMI Medium 1640 supplemented with 10% (v/v) heat-inactivated FBS (56° C. for 30 min) at 37° C. in a humidified 95% air/5% CO2 atmosphere. Cells were seeded at a level of 2×10^5 cells/ml. Cells were allowed to attain a maximum density of 1.2×10^6 cells/ml before being passed by dilution into fresh medium to a concentration of 2×10^5 cells/ml. […]
For evaluation of apoptosis by flow cytometry, cells were fixed and permeabilized in 1% paraformaldehyde and ice-cold 70% ethanol. Digoxigenin-dUTP was incorporated at the 3′OH ends of the fragmented DNA in the presence of terminal deoxynucleotidyltranserase, and the cells were incubated with FITC-labeled anti-digoxigenin-dUTP and with propidium iodide. Green (apoptotic cells) and orange (total DNA) fluorescence were measured with a FACScan flow cytometer and analyzed with LYSIS II and CELLFIT programs. Data were analyzed by Student's t-test. P values were considered significant when <0.05. […]
Apoptosis of HL-60 cells was assessed by changes in cell morphology and by measurement of DNA nicks using the Apop Tag Kkt (Oncor, Gaithersburg, Md.). […] These features make apoptotic cells relatively easy to distinguish from necrotic cells. These changes are detected on cytospin preparations stained with Diff-Quick Stain Set. Apoptotic cells were enumerated in a total of about 300 cells by light microscopy.

cancer cells = assay: Inhibition of tumor cell proliferation; assay type: cell-based; conditions: Homo sapiens; 1 μg/ml drug, 72 hours; read-out: Inhibition (%) of growth of cancer cells
Protocol: Human tumor cell lines: Hela leukemia HL-60, malignant melanocarcinoma B 16, oral epidermoid carcinoma (KB), lung carcinoma (A549), breast carcinoma MCF-7, adenocarcinoma of stomach.
Animal tumor cell lines: Walker carcinoma, LLC-WRC-256, malignant melanoma (RMMI 1846), 3T3, and S-1 80 sarcoma (CCRF-180). All lines were routinely cultured in the RPMI1640 medium supplemented 20% fetal calf serum. The experiment was carried out in 96 microplate, each well had 5×10^5 cells and given desired concentration of 1 μg/ml (1×10^−6 g/ml) drug. Then the plate was incubated at 37° C. in an atmosphere of humidified air enriched with 5 percent carbon dioxide for 72 hours. Inhibition percent rate of tumor cell proliferation was obtained according to the bellow formula. [formula]

kidney cell cultures = assay: Analysis of chromosomes (chromosomal aberrations in kidney); assay type: in vivo
Protocol: For metaphase chromosomes, kidney cell cultures were treated with colchicines (0.4 μg/ml) for 3-4 hours. The cells were then trypsinized and treated with hypotonic solution (0.075 M KCl) at 37° C. for 30 minutes. The cell suspensions were centrifuged and the pellets fixed in cold acetic acid:methanol (1:3) solution. Slides were prepared by standard air-drying method and stained with 2% Giemsa solution. The results scored by analyzing at least 200 well spread metaphases with 44±2 chromosomes for gaps, chromatid and chromosome breaks and exchanges, and association. Chromatid and chromosome aberrations were scored separately, and the total percentage was subjected to statistical analysis. Gaps were recorded but not included in the total frequency. Endoreduplication (endomitosis) was estimated from at least 500 cells/animal and expressed as a percentage.

TA100 = assay: Salmonella mutagenicity assay TA100
Protocol: as §1, §2, §3

[3] = duration of treatment 0.5 months
[4] = duration of treatment 1.0 months
[5] = duration of treatment 2.0 months
[6] = duration of treatment 3.0 months
[7] = duration of treatment 4.0 months
[8] = duration of treatment 5.0 months

With COC(=O)C[C@](O)(CCCC(C)(C)O)C(=O)O[C@@H]1C(OC)=C[C@]23CCCN2CCc2cc4c(cc2[C@H]13)OCO4 [HHT, Homoharringtonine] the “carcinogenic and mutagenic action” value [1] was “no carcinogenic and mutagenic action”, the “Apoptosis (%)” value ([2]; HHT 10 ng/ml) was 33.8 ± 4.8 % and the “Apoptosis (%)” value ([2]; HHT 50 ng/ml) was 42.8 ± 5.2 %. For the same compound, the “Apoptosis (%)” value ([2]; HHT 100 ng/ml) was 60.2 ± 8.9 %, the “Apoptosis (%)” value ([2]; HHT 500 ng/ml) was 92.0 ± 10.8 % and the “Apoptosis (%)” value ([2]; Table 4, HHT (50 ng/ml) alone or in combination) was 42.8 ± 5.2%. The inhibition at 1 µg/mL (cancer cells) was 73.8 ± 8.1%, the “% Aberrant cells (mean ± SEM)” value (kidney cell cultures; [3]) was 0.5 ± 0.1% and the “Aberration/100 cells, Chromosome Breaks” value (kidney cell cultures; [3]) was 0.1 /100 cells. For the same compound, the “% Aberrant cells (mean ± SEM)” value (kidney cell cultures; [4]) was 0.8 ± 0.2%, the “Aberration/100 cells, Chromosome Breaks” value (kidney cell cultures; [4]) was 0.5 /100 cells and the “% Aberrant cells (mean ± SEM)” value (kidney cell cultures; [5]) was 1.2 ± 0.4%. The “Aberration/100 cells, Chromosome Breaks” value (kidney cell cultures; [5]) was 0.7 /100 cells, the “Aberration/100 cells, Chromosome Exchanges” value (kidney cell cultures; [5]) was 0.1 /100 cells and the “% Aberrant cells (mean ± SEM)” value (kidney cell cultures; [6]) was 1.8 ± 0.7%. The “Aberration/100 cells, Chromosome Breaks” value (kidney cell cultures; [6]) was 0.9 /100 cells, the “% Aberrant cells (mean ± SEM)” value (kidney cell cultures; [7]) was 2.6 ± 0.8% and the “Aberration/100 cells, Chromosome Breaks” value (kidney cell cultures; [7]) was 1.2 /100 cells. For the same compound, the “Aberration/100 cells, Chromosome Exchanges” value (kidney cell cultures; [7]) was 0.1 /100 cells, the “% Aberrant cells (mean ± SEM)” value (kidney cell cultures; [8]) was 5.5 ± 0.5% and the “Aberration/100 cells, Chromosome Breaks” value (kidney cell cultures; [8]) was 1.3 /100 cells. The “Aberration/100 cells, Chromosome Exchanges” value (kidney cell cultures; [8]) was 0.2 /100 cells, the “Number of His^+ revertants/plate” value (TA100; TA100 +S, 0.1 μg/plate) was 158 revertants/plate and the “Number of His^+ revertants/plate” value (TA100; TA100 +S, 1 μg/plate) was 152 revertants/plate. For the same compound, the “Number of His^+ revertants/plate” value (TA100; TA100 +S, 10 μg/plate) was 165 revertants/plate, the “Number of His^+ revertants/plate” value (TA100; TA100 +S, 100 μg/plate) was 160 revertants/plate and the “Number of His^+ revertants/plate” value (TA100; TA100 −S, 0.1 μg/plate) was 148 ± 12 revertants/plate. The “Number of His^+ revertants/plate” value (TA100; TA100 −S, 1 μg/plate) was 140 ± 13 revertants/plate, the “Number of His^+ revertants/plate” value (TA100; TA100 −S, 10 μg/plate) was 162 ± 17 revertants/plate and the “Number of His^+ revertants/plate” value (TA100; TA100 −S, 100 μg/plate) was 158 ± 15 revertants/plate.
